Assay results taken from publication PMC11213934, “Allosteric modulators of M1 muscarinic receptors enhance acetylcholine efficacy and decrease locomotor activity and turning behaviors in zebrafish” (Scientific Reports, 2024).
Marks after values point to notes of the source that are not given here.

What was measured:
[1] = system: wild-type (AB) zebrafish (Danio rerio); test: Maximum tolerated concentration (MTC) determination in larval zebrafish; format: in vivo; conditions: after 24 h exposure; 5 dpf larvae
Protocol: (§1) Larval zebrafish were produced in the University of Toledo zebrafish core facility and housed in an incubator maintained at 28 °C on a 14:10 h cycle. Fish were acclimated to the testing room conditions the evening prior to testing. All testing took place during the 14 h light cycle after the lights had been on for at least 2 h.
Determination of maximum tolerated concentration (adapted from Berghmans)[52] was completed by placing 5 days post fertilization (dpf) wild-type zebrafish larvae in a 24 well plate at 6 fish per well, and one compound concentration per well. […] Death was determined by the absence of heartbeat. Additional endpoints were used to assess toxicity at non-lethal concentrations such as startle capacity (poke stimulus), abnormalities in swimming behavior (loss of dorsoventral balance), and gross morphological deformities (bent body). […] The MTC determination was used to select three doses of each compound (low, medium, high dose) to be used in behavioral assays.

[2] = system: wild-type (AB) zebrafish (Danio rerio); test: animal or person; format: in vivo; conditions: for Distance moved / Variance turn angle: compound at 10 µM relative to controls, mean ± s.e.m., N = 12; for MEC: locomotor behaviors
Protocol: as §1
The movement of larval zebrafish was monitored with the Noldus behavior recording system (Noldus Information Technology, Leesburg VA) and quantified using EthoVision® XT 15 software (Noldus Information Technology, Leesburg VA). Five-dpf zebrafish larvae were exposed to a range of nonlethal concentrations of compounds in a 24-well plate with appropriate controls. The plate was immediately placed in the incubator for a 30-min exposure period. After 30 min, the plate was transferred to the Noldus system and swimming behavior was recorded in 100% light for 30 min to measure spontaneous swimming behavior. The light was switched off for 10 min (dark period) and then switched on for 10 min (light period), which was then repeated for two additional cycles. In total, the larvae were exposed to three cycles of alternating 10 min dark and light periods (100% darkness-to-100% light). Each drug challenge was conducted on three separate plates with n = 6 larvae/dose/plate.
Absolute turn angle (TA) and angular velocity provided measures of the extent of turning behavior, while the intra-individual variance of turn angle quantified how consistently (low variance) or inconsistently (high variance) fish turned. A lowered intra-individual variance of turning reflected repeatedly performing the same turning behavior, a stereotypy.
All data for exposure and the behavioral end points were analyzed by one-way ANOVA (factor: drug concentration) followed by a Dunnett’s multiple comparisons test for post hoc significance between drug concentration and control group. Statistically significant differences are noted as follows; *p < 0.05; **p < 0.01; ***p < 0.001.

[3] = system: wild-type (AB) zebrafish (Danio rerio); format: in vivo; conditions: compound at 10 µM relative to controls; mean ± s.e.m., N = 12
[4] = target: T1, human M1 muscarinic receptors (Homo sapiens, UniProt P11229); test: [3H]-arachidonic acid release in CHO cells expressing M1 receptors, with and without ACh (single modulator concentration, four-parameter curves); format: cell-based; parameters: expressed in transfected cells; host or cells: CHO cells stably transfected with hM1, obtained from Mark Brann's laboratory (NIH); conditions: for 0.1 µM ACh: response with modulator present divided by response to ACh alone / 100 µM ACh: response with modulator present divided by response to ACh alone / No ACh: agonist effect of the allosteric ligand by itself, fraction of the maximal response that could be elicited by ACh: modulator 10 µM, CHO-hM1, mean ± s.e.m.; for No ACh: agonist effect of the allosteric ligand by itself, fraction of the maximal response that could be elicited by ACh: at least 4 determinations; for Effect on M1 receptor activity and ACh response, in words: modulators at 10 µM (amiodarone 30 µM)
T1 sequence (P11229 1-460): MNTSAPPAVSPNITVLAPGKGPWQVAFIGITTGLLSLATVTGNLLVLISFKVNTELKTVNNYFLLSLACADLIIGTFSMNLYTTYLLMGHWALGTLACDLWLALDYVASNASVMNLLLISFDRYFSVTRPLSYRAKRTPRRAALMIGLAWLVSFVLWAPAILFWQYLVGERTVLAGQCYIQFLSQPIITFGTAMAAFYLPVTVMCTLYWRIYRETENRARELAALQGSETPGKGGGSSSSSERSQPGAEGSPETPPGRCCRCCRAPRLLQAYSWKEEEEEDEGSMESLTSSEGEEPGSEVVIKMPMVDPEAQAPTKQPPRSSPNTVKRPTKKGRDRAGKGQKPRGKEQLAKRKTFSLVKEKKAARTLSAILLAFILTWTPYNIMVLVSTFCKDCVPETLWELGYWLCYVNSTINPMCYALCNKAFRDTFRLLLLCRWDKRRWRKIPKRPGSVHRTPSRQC
Protocol: CHO cells expressing human M1 muscarinic receptors were cultured at 37 °C in a 5% CO2 atmosphere in F12 medium supplemented with 5% fetal bovine serum, 100 units/ml penicillin, and 100 µg/ml streptomycin. These cells were obtained from Mark Brann’s laboratory when they were at NIH and have been in use by us and others for many years.
Measurement of [^3H]AA release was performed as described in Stahl and Ellis[24]. Stably transfected CHO-hM1 cells were seeded on 24-well plates (Greiner Bio-One GmbH, Frickenhausen, Germany) at a density of 5.0 × 10^4 cells/well in 0.5 ml of F-12 medium. Cells were incubated until they attached (approximately 3 h), followed by the addition of [^3H]AA to a final concentration of 0.05 μCi of [^3H]AA per well. The cells were then grown for 16 to 20 h before the assay was performed. [^3H]AA release was measured in Eagle’s basal medium with 20 mM HEPES and 2 mg/ml fatty acid-free bovine serum albumin (EM-BSA). Cells were rinsed twice with EM-BSA, followed by the addition of EM-BSA media containing experimental agents and incubated for 1 h at 37 °C. The assay was terminated by aspiration of the media, and the amount of [^3H]AA released was determined by liquid scintillation counting (Beckman-Coulter LS6500).
Where indicated (Fig. 2), cells were pretreated with POB to reduce the number of available receptors per cell. Stock POB was made up at 10 mM in ethanol and stored at −20C. Each well was pretreated with 0.5 ml of the appropriate concentration in PBS with 1 mM CaCl2 and 1 mM MgCl2 (PBS+ +) for 30 min at 37 °C, followed by 5 washes with PBS+ + . After pretreatment, the normal protocol follows as above.
Tabulated [^3H]AA release data are represented as a fraction of maximal release elicited by ACh or as the fraction of release elicited by the relevant concentration of ACh alone, as indicated. Dose-response curves were normalized to the maximal response of ACh without allosteric ligand. Where indicated, response curves were analyzed using the empirical four-parameter equation: Y=Top+Bottom-Top/1+X/C50^n where X is the concentration of the ligand used, Y is the amount of response, C50 is the concentration of the ligand that produces 50% of the maximal effect, Top and Bottom are the top and bottom plateaus of the curve, and n is related to the Hill slope for the curve. Where indicated, families of response curves were analyzed according to an allosteric operational model[50],[51]: Y=EM[τAA(KB+αβB)+τBBKA]/[τAA(KB+αβB)+τBBKA+AKB+KAKB+KAB+αAB] where EM is the maximal response; A is the concentration of ACh; B is the concentration of the allosteric ligand; τA and τB represent the operational efficacies of A and B, respectively; KA and KB are the equilibrium dissociation constants of A and B; and α and β represent the cooperativities between A and B in terms of binding and activation, respectively. Curve-fitting was carried out with GraphPad Prism, version 5.0 or 6.0 (San Diego CA).

With COc1ccc(CN2C(=O)C(=O)c3ccccc32)cc1F [Compound 8h, 1-(3-fluoro-4-methoxybenzyl)indoline-2,3-dione] the “MTC (maximum tolerated concentration)” value [1] was 30 µM, the Therap. index [2] was 10 and the Distance moved [2] was 52.7 ± 6.6*** %. The Variance turn angle [2] was 148.0 ± 12.4*** %, the MEC [2] was 3 µM and the Angular velocity [3] was 201.4 ± 27.5 %. The “0.1 µM ACh: response with modulator present divided by response to ACh alone” value [4] was 1.32 ± 0.10, the “100 µM ACh: response with modulator present divided by response to ACh alone” value [4] was 0.97 ± 0.06 and the “No ACh: agonist effect of the allosteric ligand by itself, fraction of the maximal response that could be elicited by ACh” value [4] was 0.05 ± 0.03.
For O=C1C(=O)N(Cc2ccc(O)cc2)c2ccccc21 [Compound 10, 1-(4-hydroxybenzyl)indoline-2,3-dione], the “MTC (maximum tolerated concentration)” value [1] was 10 µM, the Therap. index [2] was 3.3 and the Distance moved [2] was 72.4 ± 8.6* %. The Variance turn angle [2] was 135.3 ± 13.5* %, the MEC [2] was 3 µM and the Angular velocity [3] was 131.2 ± 13.4 %. The “0.1 µM ACh: response with modulator present divided by response to ACh alone” value [4] was 1.42 ± 0.24, the “100 µM ACh: response with modulator present divided by response to ACh alone” value [4] was 0.92 ± 0.06 and the “No ACh: agonist effect of the allosteric ligand by itself, fraction of the maximal response that could be elicited by ACh” value [4] was 0.01 ± 0.01.
COc1cc(CN2C(=O)C(=O)c3ccccc32)cc(OC)c1OC [Compound 8k, 1-(3,4,5-trimethoxybenzyl)indoline-2,3-dione] was tested, and the “MTC (maximum tolerated concentration)” value [1] was 30 µM, the Therap. index [2] was 30 and the Distance moved [2] was 66.2 ± 8.4** %. For the same molecule, the Variance turn angle [2] was 126.3 ± 10.8* %, the MEC [2] was 1 µM and the Angular velocity [3] was 154.2 ± 18.0 %. For the same molecule, the “0.1 µM ACh: response with modulator present divided by response to ACh alone” value [4] was 1.55 ± 0.07, the “100 µM ACh: response with modulator present divided by response to ACh alone” value [4] was 0.94 ± 0.06 and the “No ACh: agonist effect of the allosteric ligand by itself, fraction of the maximal response that could be elicited by ACh” value [4] was 0.03 ± 0.00.
For CCCCc1oc2ccccc2c1C(=O)c1ccc(OC)cc1 [Compound 6a, (2-butylbenzofuran-3-yl)(4-methoxyphenyl)methanone], the “MTC (maximum tolerated concentration)” value [1] was 3 µM, the Distance moved [2] was 115.4 ± 11.7% and the Variance turn angle [2] was 115.8 ± 13.0%. For the same molecule, the MEC [2] was > 3 µM, the Angular velocity [3] was 95.9 ± 13.3% and the “0.1 µM ACh: response with modulator present divided by response to ACh alone” value [4] was 1.37 ± 0.07. For the same molecule, the “100 µM ACh: response with modulator present divided by response to ACh alone” value [4] was 1.06 ± 0.04, the “No ACh: agonist effect of the allosteric ligand by itself, fraction of the maximal response that could be elicited by ACh” value [4] was 0.05 ± 0.01 and the “Effect on M1 receptor activity and ACh response, in words” value [4] was “inactive”.
In the case of CCCCc1oc2ccccc2c1C(=O)c1cc(I)c(OCCN(CC)C(C)=O)c(I)c1 [Compound 5, N-(2-(4-(2-butylbenzofuran-3-carbonyl)-2,6-diiodophenoxy)ethyl)-N-ethylacetamide], the “MTC (maximum tolerated concentration)” value [1] is reported as 10 µM, the Distance moved [2] is reported as 108.0 ± 12.9% and the Variance turn angle [2] is reported as 102.5 ± 8.1%. The MEC [2] was > 10 µM, the Angular velocity [3] was 104.0 ± 10.7% and the “0.1 µM ACh: response with modulator present divided by response to ACh alone” value [4] was 1.86 ± 0.42. The “100 µM ACh: response with modulator present divided by response to ACh alone” value [4] was 1.47 ± 0.09, the “No ACh: agonist effect of the allosteric ligand by itself, fraction of the maximal response that could be elicited by ACh” value [4] was 0.22 ± 0.03 and the “Effect on M1 receptor activity and ACh response, in words” value [4] was “significant intrinsic agonist activity”.
With COc1ccc(CN2C(=O)C(=O)c3ccccc32)cc1Cl [Compound 8f, 1-(3-chloro-4-methoxybenzyl)indoline-2,3-dione] the “MTC (maximum tolerated concentration)” value [1] was 10 µM, the Therap. index [2] was 3.3 and the Distance moved [2] was 37.4 ± 6.4*** %. The Variance turn angle [2] was 127.9 ± 16.2%, the MEC [2] was 3 µM and the Angular velocity [3] was 157.1 ± 24.5 %. For the same molecule, the “0.1 µM ACh: response with modulator present divided by response to ACh alone” value [4] was 1.67 ± 0.12, the “100 µM ACh: response with modulator present divided by response to ACh alone” value [4] was 1.08 ± 0.06 and the “No ACh: agonist effect of the allosteric ligand by itself, fraction of the maximal response that could be elicited by ACh” value [4] was 0.09 ± 0.04.
